Laboratory results reported in ChEMBL document CHEMBL1154363, “Heterocyclic 1,7-disubstituted indole sulfonamides are potent and selective human EP3 receptor antagonists” (Bioorg Med Chem Lett, 2009).

How the values were obtained:
[1] = target: T1, Prostaglandin E2 receptor EP3 subtype (Homo sapiens, UniProt P43115); assay: Displacement of [3H]PGE2 from human EP3 receptor
T1 sequence (P43115 whole entry): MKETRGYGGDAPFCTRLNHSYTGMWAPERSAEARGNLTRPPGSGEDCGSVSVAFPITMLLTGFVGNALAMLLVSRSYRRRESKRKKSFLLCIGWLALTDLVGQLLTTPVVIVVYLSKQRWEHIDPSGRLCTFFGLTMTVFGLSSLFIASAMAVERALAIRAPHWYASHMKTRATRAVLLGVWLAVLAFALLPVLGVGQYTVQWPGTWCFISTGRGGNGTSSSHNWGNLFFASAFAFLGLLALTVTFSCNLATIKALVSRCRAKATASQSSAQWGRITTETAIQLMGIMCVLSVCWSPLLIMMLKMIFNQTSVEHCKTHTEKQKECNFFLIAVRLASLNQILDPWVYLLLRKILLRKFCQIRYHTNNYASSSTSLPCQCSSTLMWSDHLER

[2] = target: T2, Prostaglandin E2 receptor EP3 subtype (Homo sapiens) (UniProt P43115); assay: Displacement of [3H]PGE2 from human EP3 receptor in presence of 10% human serum
T2 sequence (whole entry): T1 sequence (P43115 whole entry)

[3] = Metabolic stability in rat liver microsomes assessed as compound remaining after 30 mins; format: ADME, Microsome; details: read-out: Stability
[4] = Metabolic stability in human liver microsomes assessed as compound remaining after 30 mins; format: ADME, Microsome; details: read-out: Stability
[5] = test system: Platelet; assay: Inhibition of PGE2/collagen-induced platelet aggregation rat platelets rich plasma; format: functional
[6] = target: T3, Prostaglandin E2 receptor EP1 subtype (Homo sapiens) (UniProt P34995); assay: Activity at EP1 receptor at 10 uM by FLIPR assay
T3 sequence (whole entry): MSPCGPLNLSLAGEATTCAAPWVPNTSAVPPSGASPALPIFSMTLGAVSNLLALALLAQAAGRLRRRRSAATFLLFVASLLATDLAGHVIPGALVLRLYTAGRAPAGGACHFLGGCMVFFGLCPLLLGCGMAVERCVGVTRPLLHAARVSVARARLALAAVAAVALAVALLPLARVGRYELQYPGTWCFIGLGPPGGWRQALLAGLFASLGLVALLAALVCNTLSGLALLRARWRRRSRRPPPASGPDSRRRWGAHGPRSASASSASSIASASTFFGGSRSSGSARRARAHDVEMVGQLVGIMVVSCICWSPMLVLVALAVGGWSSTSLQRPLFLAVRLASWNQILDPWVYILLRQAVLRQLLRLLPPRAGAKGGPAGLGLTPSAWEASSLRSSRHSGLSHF

[7] = target: T3, Prostaglandin E2 receptor EP1 subtype (Homo sapiens); assay: Activity at EP1 receptor at 1 uM by FLIPR assay
[8] = target: T3, Prostaglandin E2 receptor EP1 subtype (Homo sapiens); assay: Activity at EP1 receptor at 0.1 uM by FLIPR assay
[9] = target: T4, Prostaglandin E2 receptor EP4 subtype (Homo sapiens, UniProt P35408); assay: Activity at EP4 receptor at 10 uM by FLIPR assay
T4 sequence (P35408 whole entry): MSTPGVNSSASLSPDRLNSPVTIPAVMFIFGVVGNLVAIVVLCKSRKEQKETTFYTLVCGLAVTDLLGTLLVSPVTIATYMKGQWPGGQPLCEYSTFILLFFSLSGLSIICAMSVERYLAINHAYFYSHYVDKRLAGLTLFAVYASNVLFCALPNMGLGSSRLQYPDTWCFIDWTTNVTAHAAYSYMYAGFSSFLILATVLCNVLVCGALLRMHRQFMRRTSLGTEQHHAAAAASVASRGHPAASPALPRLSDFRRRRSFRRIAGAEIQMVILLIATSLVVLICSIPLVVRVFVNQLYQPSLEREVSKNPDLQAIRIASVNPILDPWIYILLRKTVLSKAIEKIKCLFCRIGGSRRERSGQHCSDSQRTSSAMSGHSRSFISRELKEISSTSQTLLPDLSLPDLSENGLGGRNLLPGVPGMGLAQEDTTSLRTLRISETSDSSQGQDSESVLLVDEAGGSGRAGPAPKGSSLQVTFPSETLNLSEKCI

[10] = target: T4, Prostaglandin E2 receptor EP4 subtype; assay: Activity at EP4 receptor at 1 uM by FLIPR assay
[11] = target: T4, Prostaglandin E2 receptor EP4 subtype; assay: Activity at EP4 receptor at 0.1 uM by FLIPR assay
[12] = target: T5, Prostaglandin F2-alpha receptor (Homo sapiens, UniProt P43088); assay: Activity at FP receptor at 10 uM by FLIPR assay
T5 sequence (P43088 whole entry): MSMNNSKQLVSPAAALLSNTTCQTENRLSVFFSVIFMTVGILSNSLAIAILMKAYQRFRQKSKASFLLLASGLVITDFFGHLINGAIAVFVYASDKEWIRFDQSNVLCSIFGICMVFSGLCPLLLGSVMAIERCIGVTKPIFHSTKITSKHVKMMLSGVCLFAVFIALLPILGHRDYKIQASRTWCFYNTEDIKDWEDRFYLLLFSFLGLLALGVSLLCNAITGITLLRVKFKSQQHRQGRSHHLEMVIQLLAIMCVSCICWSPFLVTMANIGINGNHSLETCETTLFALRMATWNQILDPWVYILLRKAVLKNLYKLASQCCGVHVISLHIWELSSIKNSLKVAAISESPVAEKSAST

[13] = target: T5, Prostaglandin F2-alpha receptor; assay: Activity at FP receptor at 1 uM by FLIPR assay
[14] = target: T5, Prostaglandin F2-alpha receptor; assay: Activity at FP receptor at 0.1 uM by FLIPR assay
[15] = target: T6, Thromboxane A2 receptor (Homo sapiens) (UniProt P21731); assay: Activity at TP receptor at 10 uM by FLIPR assay
T6 sequence (whole entry): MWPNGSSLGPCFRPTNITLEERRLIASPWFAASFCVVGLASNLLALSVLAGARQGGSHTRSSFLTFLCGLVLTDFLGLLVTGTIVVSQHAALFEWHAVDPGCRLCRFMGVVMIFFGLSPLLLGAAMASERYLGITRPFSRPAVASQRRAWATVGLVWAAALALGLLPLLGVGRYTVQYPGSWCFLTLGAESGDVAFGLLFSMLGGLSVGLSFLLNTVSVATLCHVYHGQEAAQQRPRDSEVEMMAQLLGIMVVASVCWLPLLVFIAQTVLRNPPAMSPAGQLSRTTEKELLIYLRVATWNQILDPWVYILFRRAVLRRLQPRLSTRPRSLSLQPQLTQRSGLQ

[16] = target: T6, Thromboxane A2 receptor (Homo sapiens); assay: Activity at TP receptor at 1 uM by FLIPR assay
[17] = target: T6, Thromboxane A2 receptor (Homo sapiens); assay: Activity at TP receptor at 0.1 uM by FLIPR assay
[18] = Protein binding in plasma by HSA-HPLC method; format: ADME, cell-free; details: human, read-out: PB (converted)

| SMILES | IC50 [1] [nM] | fold change (FC) [2] | remaining at 0.5 h [3] [%] | remaining at 0.5 h [4] [%] | IC50 [5] [nM] | Activity [6] [%] | Activity [7] [%] | Activity [8] [%] | Activity [9] [%] | Activity [10] [%] | Activity [11] [%] | Activity [12] [%] | Activity [13] [%] | Activity [14] [%] | Activity [15] [%] | Activity [16] [%] | Activity [17] [%] | fraction unbound [18] |
| --- | --- | --- | --- | --- | --- | --- | --- | --- | --- | --- | --- | --- | --- | --- | --- | --- | --- | --- |
| Cc1cn(Cc2ccc(Cl)cc2Cl)c2c(-c3nnc(NC(=O)c4ccco4)o3)cc(F)cc12 | 363 | – | – | – | – | – | – | – | – | – | – | – | – | – | – | – | – | – |
| Cc1cn(Cc2ccc(Cl)cc2Cl)c2c(-c3nnc(NS(C)(=O)=O)o3)cc(F)cc12 | 2570 | 199 | – | – | – | – | – | – | – | – | – | – | – | – | – | – | – | – |
| Cc1cn(Cc2ccc(Cl)cc2Cl)c2c(-c3nnc(NC(=O)c4ccc(F)c(F)c4)o3)cc(F)cc12 | 664 | 19.6 | – | – | – | 96 | 10 | -7 | 62 | 14 | 9 | 66 | 15 | 3 | 64 | -1 | 11 | – |
| Cc1cn(Cc2ccc(F)cc2F)c2c(-c3cc(NS(C)(=O)=O)on3)cc(F)cc12 | 17900 | – | – | – | – | – | – | – | – | – | – | – | – | – | – | – | – | – |
| Cc1cn(Cc2ccc(Cl)cc2Cl)c2c(-c3nnc(NS(=O)(=O)c4cc(F)c(F)cc4F)o3)cc(F)cc12 | 2 | 22 | – | – | – | 99 | 94 | 25 | 84 | 15 | 9 | 64 | 21 | 5 | 99 | 11 | 3 | 0.006 |
| Cc1cn(Cc2ccc3ccccc3c2)c2c(-c3cc(NS(=O)(=O)c4cc(F)c(F)cc4F)no3)cc(F)cc12 | 8 | 2.3 | – | – | – | 100 | 29 | -2 | 9 | -17 | -17 | 19 | 3 | -3 | 19 | -5 | -9 | – |
| Cc1cn(Cc2ccc(F)c(F)c2)c2c(-c3cc(NS(=O)(=O)c4ccc(F)c(F)c4F)no3)cc(F)cc12 | 12 | 103 | – | – | – | 99 | 77 | 5 | 38 | -3 | -8 | 99 | -11 | 3 | 70 | 3 | 5 | – |
| Cc1cn(Cc2ccc(Cl)cc2Cl)c2c(-c3nnc(NC(=O)c4ccc5c(c4)OC(F)(F)O5)o3)cc(F)cc12 | 244 | 21.4 | – | – | – | – | – | – | – | – | – | – | – | – | – | – | – | – |
| Cc1cn(Cc2ccc(F)c(F)c2)c2c(-c3cc(NS(=O)(=O)c4cc(Cl)c(Cl)s4)nn3C)cc(F)cc12 | 1980 | 1 | – | – | – | – | – | – | – | – | – | – | – | – | – | – | – | – |
| Cc1cn(Cc2ccc(Cl)cc2Cl)c2c(-c3nnc(NC(=O)c4ccc(F)cc4F)o3)cc(F)cc12 | 1020 | – | – | – | – | – | – | – | – | – | – | – | – | – | – | – | – | – |
| Cc1cn(Cc2ccc3ccccc3c2)c2c(-c3cc(NS(=O)(=O)c4cc(Cl)c(Cl)s4)no3)cc(F)cc12 | 1 | 3.6 | – | – | 3240 | 80 | 0 | -10 | 10 | -9 | -9 | 7 | -4 | -7 | 7 | -7 | -12 | – |
| Cc1cn(Cc2ccc3ccccc3c2)c2c(-c3cc(NS(=O)(=O)c4ccc(F)c(F)c4)no3)cc(F)cc12 | 1 | 14.6 | 9.9 | – | – | 62 | 9 | -3 | -4 | -17 | -25 | 6 | 0 | -9 | 12 | -2 | 3 | – |

Continued, values first:

| IC50 [1] [nM] | fold change (FC) [2] | remaining at 0.5 h [3] [%] | remaining at 0.5 h [4] [%] | IC50 [5] [nM] | Activity [6] [%] | Activity [7] [%] | Activity [8] [%] | Activity [9] [%] | Activity [10] [%] | Activity [11] [%] | Activity [12] [%] | Activity [13] [%] | Activity [14] [%] | Activity [15] [%] | Activity [16] [%] | Activity [17] [%] | fraction unbound [18] | SMILES |
| --- | --- | --- | --- | --- | --- | --- | --- | --- | --- | --- | --- | --- | --- | --- | --- | --- | --- | --- |
| 5 | 67 | 57.8 | 46.8 | 1040 | – | – | – | – | – | – | – | – | – | – | – | – | – | Cc1cn(Cc2ccc(Cl)cc2Cl)c2c(-c3cc(NS(=O)(=O)c4cc(Cl)c(Cl)s4)no3)cc(F)cc12 |
| 1 | 18 | – | – | – | – | – | – | – | – | – | – | – | – | – | – | – | – | Cc1cn(Cc2ccc(Cl)cc2Cl)c2c(-c3cc(NS(=O)(=O)c4ccc(Cl)c(Cl)c4)no3)cc(F)cc12 |
| 20 | 2.4 | 42.5 | – | 2710 | 100 | 30 | -11 | 32 | 26 | 13 | 41 | 26 | 22 | 89 | 9 | -5 | – | Cc1cn(Cc2ccc(Cl)cc2Cl)c2c(-c3nnc(NS(=O)(=O)c4ccc(F)c(F)c4)o3)cc(F)cc12 |
| 11 | 4.9 | – | – | – | 16 | -7 | 2 | 3 | -15 | -29 | -6 | -8 | -3 | -13 | -8 | 9 | – | Cc1cn(Cc2ccc3ccccc3c2)c2c(-c3cc(NS(=O)(=O)c4ccc(Cl)c(Cl)c4)no3)cc(F)cc12 |
| 59 | 24.2 | – | – | – | 52 | -5 | -8 | 18 | 11 | 9 | 31 | 18 | 8 | 11 | -3 | 3 | – | Cc1cn(Cc2ccc(F)c(F)c2)c2c(-c3cc(NS(=O)(=O)c4cc(Cl)c(Cl)s4)no3)cc(F)cc12 |
| 10 | 27 | 46.4 | 62.7 | – | – | – | – | – | – | – | – | – | – | – | – | – | 0.002 | Cc1cn(Cc2ccc(Cl)cc2Cl)c2c(-c3nnc(NS(=O)(=O)c4cc(Cl)c(Cl)s4)o3)cc(F)cc12 |
| 3 | 3.3 | – | – | – | – | – | – | – | – | – | – | – | – | – | – | – | – | Cc1cn(Cc2ccc(Cl)cc2Cl)c2c(-c3cc(NS(=O)(=O)c4cc(F)c(F)cc4F)no3)cc(F)cc12 |
| 2 | 217 | – | – | – | – | – | – | – | – | – | – | – | – | – | – | – | – | Cc1cn(Cc2ccc(Cl)cc2Cl)c2c(-c3ccc(NS(=O)(=O)c4cc(Cl)c(Cl)s4)nc3)cc(F)cc12 |
| 44 | 178 | – | – | – | 99 | 11 | -9 | 18 | 17 | 18 | 21 | 16 | 15 | 17 | 0 | 3 | – | Cc1cn(Cc2ccc(F)c(F)c2)c2c(-c3cc(NS(=O)(=O)c4ccc(F)c(F)c4)no3)cc(F)cc12 |
| 24 | 20.9 | – | – | – | 100 | 74 | 5 | 25 | -21 | -21 | 30 | -2 | -4 | 98 | 5 | 2 | – | Cc1cn(Cc2ccc(Cl)cc2Cl)c2c(-c3nc(NS(=O)(=O)c4cc(Cl)c(Cl)s4)no3)cc(F)cc12 |
